# In patent publication US20260317304A1, “TEAD INHIBITORS AND METHODS OF USE” (Sporos BioDiscovery, Inc., priority 2022, published 2026):
# How the values were obtained:
# NCI-H226 cells = assay: Proliferation and cell viability assay, CellTiter-Glo 2.0 (CTG); type: cell-based, human; conditions: 144 hrs
# Protocol: Cell proliferation of a TEAD dependent NF2-null mesothelioma cell line, NCI-H226 was assayed using two different protocols. Results were confirmed in two different TEAD-non-dependent lung cancer cell lines, H23 and H28, were used as non-responsive controls, as indicated:
# a) CellTiter-Glo® 2.0 (Promega #G9243). The effect of the TEAD inhibitors disclosed herein on cell proliferation was determined in TEAD1-genetically dependent cell line NCI-H226 (responder cell line) and TEAD-independent cell lines (NCI-H23, HEK293T), as non-responder, negative control. Cells were seeded in 96-well plates (Thermo Scientific #167008) in growth media (RPMI-1640, Gibco #61870-010) for NCI-H226 and NCI-H23 or DMEM (Gibco #31966-021, HEK293T) with […] Heat Inactivated Fetal Bovine Serum (Gibco 10500-064) at 800 (NCI-H226 and HEK-293T) or 2000 (NCI-H23) cells per well at 37° C., […], humidified incubator; 24 hours later, fresh growth media containing test compound or DMSO vehicle was added and incubated with the cells for 144 hrs. TEAD inhibitor stocks were made at a 1000× fold excess in DMSO, and a dose response test compound dose range of 10,000 to 0.1 nM was used. Each treatment was carried out in triplicate. After 144 hrs of treatment, relative cell viability numbers were determined using the CellTiter-Glo 2.0 assay following the manufacturer's instructions. Test plates and CellTiter-Glo 2.0 reagent were allowed to equilibrate to room temperature. CellTiter-Glo 2.0 reagent was added at 1:1 reagent to media ratio to the 96-well cell plates, plates were placed on a plate shaker for 2 minutes and then incubated at room temperature for a further 10 minutes to allow complete cell lysis to occur. The mix was then transferred to white, 96-well luminometer assay plates (Greiner Bio One #655075). Luminescence was quantified using a CLARIOStar Plus multi-mode plate reader (BMG Labtech) in luminescence detection mode with the recommended settings (ultra-Glo pre-set: emission 545-50 nm with autofocus and enhanced dynamic range on). Relative cell density was expressed as a function of inhibitor concentration, with respect to DMSO-only control wells. Data where plotted using GraphPad Prism and IC50 values for the biological effect were calculated using the EC50 non-linear fit function using a sigmoidal, 4-parameter logistic, least squares fit with no constraints.
# For IC50 and EC50 data “A” indicates a value of less than 0.2 μM; the symbol “B” indicates a value in the range of from 0.2 μM up to 1 μM; and the symbol “C” indicates a value of greater than 1 μM. ND: no data.
# Mero82 cells = assay: Mero82 proliferation and cell viability assay (CTG); type: cell-based; conditions: 144 hours
# Protocol: Mero 82 cells were trypsinised, counted and plated at 400 cells/well in 200 μl of growth media in 96 well flat bottom tissue culture treated plates. The plated cells were incubated overnight at 37° C., 5% CO2 before being treated with compounds in triplicate for each assay point. 50 μl of the serially diluted compound was added to each well giving a final DMSO concentration of 0.5% per well and a total volume of 250 μl per well. The treated cells were incubated for 144 hours (6 days) at 37° C., 5% CO2. Following compound treatment, the remaining viable cells were detected using the Promega CellTiter-Glo 2.0 assay as follows: 150 μl of media was removed from each of the wells to be assayed and 100 μl of room temperature CellTiter-Glo 2.0 reagent was added. The plate was placed on an orbital shaker at 500 rpm at room temperature for 2 minutes, and then incubated without shaking for a further 10 minutes at room temperature. 150 μl of cell lysate was removed from each well and dispensed into a single well of a white opaque 96 well plate. Luminescence at 545 nm was read using a BMG CLARIOstar plate reader. The luminescent signal was directly proportional to number of viable cells, the percent of viable cells relative to the DMSO control was then calculated for each assay point. Percent viability relative to DMSO control was plotted against compound concentration and a curve fitted with non-linear regression in GraphPad Prism software. EC50 and absolute IC50 values were calculated using GraphPad Prism software as follows: For EC50 values, a non-constrained four-parameter logistic curve fit was used (Sigmoidal, 4PL, X is concentration). For Absolute IC50 values the baseline was constrained to Y=0 and top at 100 (Absolute IC50, X is concentration). Area Under the Curve (AUC): Prism computes area-under-the-curve by the trapezoidal method. The analysis sees a fitted curve as simply a series of connected XY points. Prism simply computes the area under the “curve” defined by connecting the points by straight lines. The units of the AUC are the units of the Y axis times units of the X axis.
# For EC50 data, the symbol “A” indicates a value of less than 0.2 μM; the symbol “B” indicates a value in the range of from 0.2 μM up to 1 μM; and the symbol “C” indicates a value of greater than 1 μM.
# BHY cells = assay: BHY proliferation and cell viability assay (CTG); type: cell-based; conditions: 144 hours
# Protocol: BHY cells were trypsinised, counted and plated at 2500 cells/well in 200 μl of growth media in 96 well flat bottom tissue culture treated plates. The plated cells were incubated overnight at 37° C., 5% CO2 before being treated with compounds in triplicate for each assay point. 50 μl of the serially diluted compound was added to each well giving a final DMSO concentration of 0.5% per well and a total volume of 250 μl per well. The treated cells were incubated for 144 hours (6 days) at 37° C., 5% CO2. Following compound treatment, the remaining viable cells were detected using the Promega CellTiter-Glo 2.0 assay as follows: 150 μl of media was removed from each of the wells to be assayed and 100 μl of room temperature CellTiter-Glo 2.0 reagent was added. The plate was placed on an orbital shaker at 500 rpm at room temperature for 2 minutes, and then incubated without shaking for a further 10 minutes at room temperature. 150 μl of cell lysate was removed from each well and dispensed into a single well of a white opaque 96 well plate. Luminescence at 545 nm was read using a BMG CLARIOstar plate reader. The luminescent signal was directly proportional to number of viable cells, the percent of viable cells relative to the DMSO control was then calculated for each assay point. Percent viability relative to DMSO control was plotted against compound concentration and a curve fitted with non-linear regression in GraphPad Prism software. EC50 and absolute IC50 values are calculated using GraphPad Prism software as follows: For EC50 values, a non-constrained four-parameter logistic curve fit was used (Sigmoidal, 4PL, X is concentration). For Absolute IC50 values the baseline was constrained to Y=0 and top at 100 (Absolute IC50, X is concentration). Area Under the Curve (AUC): Prism computes area-under-the-curve by the trapezoidal method. The analysis sees a fitted curve as simply a series of connected XY points. Prism simply computes the area under the “curve” defined by connecting the points by straight lines. The units of the AUC are the units of the Y axis times units of the X axis. […]
# [1] = Homo sapiens, NCI-H226, responder cell line
Compound,EC50 (NCI-H226 cells; [1]) [nM],EC50 (Mero82 cells) [nM],EC50 (BHY cells) [nM],EC50 (NCI-H226 cells; responder cell line) [nM]
"Cn1cnc(-c2cc([C@@]3(C)CCNC3=O)ccc2Nc2ccc(C(F)(F)F)cc2)c1 (single isomer, unassigned) [Compound 5, 3-methyl-3-(3-(1-methyl-1H-imidazol-4-yl)-4-((4-(trifluoromethyl)phenyl)amino)phenyl)pyrrolidin-2-one]",< 200,< 200,200 to 1000,–
"Cn1cnc(-c2cc(C3(C)NC(=O)NC3=O)ccc2Nc2ccc(C(F)(F)F)cc2)c1 (single isomer, unassigned) [Compound 15, 5-methyl-5-(3-(1-methyl-1H-imidazol-4-yl)-4-((4-(trifluoromethyl)phenyl)amino)phenyl)imidazolidine-2,4-dione]",–,< 200,–,< 200
"Cn1nnc(-c2cc([C@]3(C)CCNC3=O)ccc2Nc2ccc(C(F)(F)F)cc2)n1 (stereo in doubt) [Compound 20, 3-methyl-3-(3-(2-methyl-2H-tetrazol-5-yl)-4-((4-(trifluoromethyl)phenyl)amino)phenyl) pyrrolidin-2-one]",< 200,< 200,–,–
"FC(F)(F)c1ccc(CN2CCC(C3CC(Br)=NO3)CC2)cc1 (centres unmarked) [Compound 1-2, reference compound]",–,> 1000,> 1000,–
"C=CC(=O)Nc1ccc(C)c(Oc2ccc(Cl)cc2)c1 [Compound 1-3, reference compound]",–,< 200,< 200,–
